# US20170114021A1, “HALOGEN-SUBSTITUTED COMPOUNDS” (priority 2014, published 2017)
# What was measured:
# Spodoptera frugiperda = Spodoptera frugiperda spray test (SPODFR); format: in vivo; conditions: application rate 100 g/ha; maize leaf discs; after 7 days
# Description: Spodoptera frugiperda—Spray Test (SPODFR)
# Solvent: 78.0 parts by weight of acetone • • 1.5 parts by weight of dimethylformamide Emulsifier: alkylaryl polyglycol ether
# (§1) To produce a suitable preparation of active compound, 1 part by weight of active compound is dissolved using the specified parts by weight of solvent and made up with water containing an emulsifier concentration of 1000 ppm until the desired concentration is attained. To produce further test concentrations, the preparation is diluted with emulsifier-containing water.
# Leaf discs of maize (Zea mays) are sprayed with an active compound preparation of the desired concentration and, after drying, populated with caterpillars of the armyworm (Spodoptera frugiperda).
# After 7 days, efficacy in % is determined. 100% means that all the caterpillars have been killed; 0% means that no caterpillars have been killed.
# [1] = log P by HPLC on reversed-phase column (C18), EEC Directive 79/831 Annex V.A8; format: physicochemical
# Description: ^a) Unless indicated otherwise, the following method was used to determine the log P values and masses: The determination of the given log P values was carried out in accordance with EEC Directive 79/831 Annex V.A8 by HPLC (High Performance Liquid Chromatography) on a reversed-phase column (C18). Agilent 1100 LC system; 50*4.6 Zorbax Eclipse Plus C18 1.8 micron; mobile phase A: acetonitrile (0.1% formic acid); mobile phase B: water (0.09% formic acid); linear gradient from 10% acetonitrile to 95% acetonitrile in 4.25 min, then 95% acetonitrile for a further 1.25 min; oven temperature 55° C.; flow rate: 2.0 ml/min. Mass detection is effected by means of an Agilend MSD system.
# Lucilia cuprina = Lucilia cuprina test (LUCICU); format: in vivo; conditions: application rate 20 ppm; L1 larvae; after 2 days
# Description: Lucilia cuprina-Test (LUCICU) Solvent: dimethyl sulphoxide
# (§2) To produce a suitable preparation of active compound, 10 mg of active compound are mixed with 0.5 ml of dimethyl sulphoxide, and the concentrate is diluted with water to the desired concentration.
# About 20 L1 larvae of the Australian sheep blowfly (Lucilia cuprina) are transferred into a test vessel containing minced horsemeat and the active compound preparation of the desired concentration.
# After 2 days, the kill in % is determined. 100% means that all the larvae have been killed; 0% means that no larvae have been killed.
# Ctenocephalides felis [2] = test: Ctenocephalides felis in vitro contact test; format: in vivo; conditions: application rate 5 μg/cm^2; adult cat fleas; after 48 h
# Description: Ctenocephalides felis—In Vitro Contact Test
# For the coating of the test tubes, 9 mg of active compound are first dissolved in 1 ml of acetone p.a. and then diluted to the desired concentration with acetone p.a. 250 μl of the solution are distributed homogeneously on the inner walls and the base of a 25 ml test tube by turning and rocking on an orbital shaker (rocking rotation at 30 rpm for 2 h). With 900 ppm active compound solution and internal surface 44.7 cm^2, given homogeneous distribution, an area-based dose of 5 μg/cm^2 is achieved.
# After the solvent has evaporated off, the tubes are populated with 5-10 adult cat fleas (Ctenocephalides felis), sealed with a perforated plastic lid and incubated in a horizontal position at room temperature and ambient humidity. After 48 h, efficacy is determined. To this end, the test tubes are stood upright and the fleas are knocked to the base of the tube. Fleas which remain motionless at the base or move in an uncoordinated manner are considered to be dead or moribund.
# 100% efficacy means that all the fleas were dead or moribund. 0% efficacy means that no fleas were harmed.
# Musca domestica = Musca domestica test (MUSCDO); format: in vivo; conditions: application rate 20 ppm; adult houseflies; after 2 days
# Description: Musca domestica-Test (MUSCDO) Solvent: dimethyl sulphoxide
# as §2
# Vessels containing a sponge treated with sugar solution and the active compound preparation of the desired concentration are populated with 10 adult houseflies (Musca domestica).
# After 2 days, the kill in % is determined. 100% means that all of the flies have been killed; 0% means that none of the flies have been killed.
# Ctenocephalides felis [3] = test: Ctenocephalides felis oral test (CTECFE); format: in vivo; conditions: application rate 20 ppm in citrated cattle blood; after 2 days
# Description: Ctenocephalides felis—Oral Test (CTECFE) Solvent: dimethyl sulphoxide
# To produce a suitable preparation of active compound, 10 mg of active compound are mixed with 0.5 ml of dimethyl sulphoxide. Dilution with citrated cattle blood gives the desired concentration.
# About 20 unfed adult cat fleas (Ctenocephalides felis) are placed into a chamber which is closed at the top and bottom with gauze. A metal cylinder whose bottom end is closed with parafilm is placed onto the chamber. The cylinder contains the blood/active compound preparation, which can be imbibed by the fleas through the parafilm membrane.
# After 2 days, the kill in % is determined. 100% means that all of the fleas have been killed; 0% means that none of the fleas have been killed.
# Tetranychus urticae = Tetranychus urticae spray test, OP-resistant (TETRUR); format: in vivo; conditions: application rate 100 g/ha; bean leaf discs; after 6 days
# Description: Tetranychus urticae—Spray Test, OP-Resistant (TETRUR) Solvent: 78.0 parts by weight of acetone • • 1.5 parts by weight of dimethylformamide Emulsifier: alkylaryl polyglycol ether
# as §1
# Discs of bean leaves (Phaseolus vulgaris) infested by all stages of the greenhouse red spider mite (Tetranychus urticae) are sprayed with an active ingredient formulation of the desired concentration.
# After 6 days, efficacy in % is determined. 100% means that all the spider mites have been killed; 0% means that no spider mites have been killed.
# Phaedon cochleariae = Phaedon cochleariae spray test (PHAECO); format: in vivo; conditions: application rate 100 g/ha; Chinese cabbage leaf discs; after 7 days
# Description: Phaedon cochleariae—Spray Test (PHAECO) Solvent: 78.0 parts by weight of acetone • • 1.5 parts by weight of dimethylformamide Emulsifier: alkylaryl polyglycol ether
# as §1
# After 7 days, efficacy in % is determined. 100% means that all the beetle larvae have been killed; 0% means that no beetle larvae have been killed.
# Amblyomma hebraeum = test: Amblyomma hebaraeum test (AMBYHE), tick nymph immersion; format: in vivo; conditions: application rate 20 ppm; tick nymphs; after 42 days
# Description: Amblyomma hebaraeum Test (AMBYHE) Solvent: dimethyl sulphoxide
# as §2
# Tick nymphs (Amblyomma hebraeum) are placed into perforated plastic beakers and immersed in the desired concentration for one minute. The ticks are transferred on filter paper into a Petri dish and stored in a climate-controlled cabinet.
# After 42 days, the kill in % is determined. 100% means that all of the ticks have been killed; 0% means that none of the ticks have been killed.
# Myzus persicae = Myzus persicae spray test (MYZUPE); format: in vivo; conditions: application rate 100 g/ha; Chinese cabbage leaf discs; after 6 days
# Description: Myzus persicae—Spray Test (MYZUPE) Solvent: 78 parts by weight of acetone • • 1.5 parts by weight of dimethylformamide Emulsifier: alkylaryl polyglycol ether
# as §1
# Discs of Chinese cabbage leaves (Brassica pekinensis) infested by all stages of the green peach aphid (Myzus persicae) are sprayed with an active compound preparation of the desired concentration.
# After 6 days, efficacy in % is determined. 100% means that all the aphids have been killed; 0% means that no aphids have been killed.
substance,measurement,setting,value
"N-{2-fluoro-5-[2′-methyl-5′-(pentafluoroethyl)-4′-(trifluoromethyl)-2′H-1,3′-bipyrazol-4-yl]benzyl}propanamide [Ic-1]",efficacy,Spodoptera frugiperda,100%
same,log P,[1],3.83
same,efficacy (kill),Lucilia cuprina,100%
same,efficacy,Ctenocephalides felis [2],100%
same,efficacy (kill),Musca domestica,100%
same,efficacy (kill),Ctenocephalides felis [3],100%
same,efficacy,Tetranychus urticae,100%
same,efficacy,Phaedon cochleariae,100%
same,efficacy (kill),Amblyomma hebraeum,100%
same,efficacy,Myzus persicae,90%
